target: T1, BACE-1 enzyme (Homo sapiens, UniProt P56817); assay: BACE Fluorescence Resonance Energy Transfer (FRET) Assay; type: biochemical; settings: pH 4-4.5, 30 min pre-incubation, about 1.5 hours reaction
T1 construct: purchased R & D Systems 931AS
Method: BACE Fluorescence Resonance Energy Transfer (FRET) Assay
In the following assay, the proteolytic activity of BACE is measured by observing cleavage of a fluorescent group from a peptide substrate containing a rhodamine fluorescent donor and a quenching acceptor.
The inhibitory activity of compounds of Formula (I) may be compared to a statine derived control inhibitor STA200 (MP Biomedical Cat. #STA-200). The cleavage reaction occurs when a BACE-1 substrate (Invitrogen, Cat. #P2986) was added to a reaction mixture containing BACE-1 enzyme (R & D Systems, Cat. #931AS) and allowed to proceed for about 1.5 hours. Fluorescence, used as a marker of BACE activity, is monitored using 540 nm excitation and 585 nm emission wavelengths (Envision, Perkin Elmer).
A typical assay reaction contains BACE-1 enzyme—in assay buffer (50 mM sodium acetate, pH 4-4.5, 0.01% CHAPS (3-[(3-Cholamidopropyl)dimethylammonio]-1-propanesulfonate), 0.0125% TritonX-100, 0.006% EDTA) which is pre-incubated for 30 minutes with test compound in 7.5% DMSO. The reaction is initiated with the addition of BACE-1 substrate in assay buffer and allowed to proceed for about 1.5 hours at room temperature. Assays are conducted in black 384-well microtiter plates and scanned at room temperature using 540 nm excitation and 585 nm emission wavelengths.
In some instances, the percent inhibition at a given concentration is reported instead of the IC50.

T1 sequence (P56817 46-457 limits assumed): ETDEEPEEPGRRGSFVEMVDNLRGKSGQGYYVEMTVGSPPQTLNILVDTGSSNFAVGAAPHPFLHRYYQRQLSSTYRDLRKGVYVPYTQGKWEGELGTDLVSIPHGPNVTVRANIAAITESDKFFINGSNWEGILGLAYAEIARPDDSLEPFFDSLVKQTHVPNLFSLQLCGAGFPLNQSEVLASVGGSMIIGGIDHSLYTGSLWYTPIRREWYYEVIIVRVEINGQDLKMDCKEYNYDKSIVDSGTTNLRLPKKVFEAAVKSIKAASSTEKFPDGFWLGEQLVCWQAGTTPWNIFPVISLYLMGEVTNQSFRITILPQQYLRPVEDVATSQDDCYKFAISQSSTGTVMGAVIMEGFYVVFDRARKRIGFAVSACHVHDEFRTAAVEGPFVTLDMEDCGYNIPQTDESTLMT

IC50 | Compound
1.32 µM | COCCCOc1cccc(-c2ccc3[nH]c(NC(=O)c4cn5c(C)cccc5n4)nc3c2)c1 [Example 39, 5-Methyl-imidazo[1,2-a]pyridine-2-carboxylic acid {5-[3-(3-methoxy-propoxy)-phenyl]-1H-benzoimidazol-2-yl}-amide]
2.55 µM | Cc1cccc2nc(C(=O)Nc3nc4cc(-c5cccc(OC6CCCCC6)c5)ccc4[nH]3)cn12 [Example 40, 5-Methyl-imidazo[1,2-a]pyridine-2-carboxylic acid [5-(3-cyclohexyloxy-phenyl)-1H-benzoimidazol-2-yl]-amide]
4.37 µM | Cc1cccc2nc(C(=O)Nc3nc4cc(-c5cccc(N6CCOCC6)c5)ccc4[nH]3)cn12 [Example 44, 5-Methyl-imidazo[1,2-a]pyridine-2-carboxylic acid [5-(3-morpholin-4-yl-phenyl)-1H-benzoimidazol-2-yl]-amide]
0.4 µM | Cc1cccn2cc(C(=O)Nc3nc4cc(-c5cc(F)cc(Cl)c5)ccc4[nH]3)nc12 [Example 57, 8-Methyl-imidazo[1,2-a]pyridine-2-carboxylic acid [5-(3-chloro-5-fluoro-phenyl)-1H-benzoimidazol-2-yl]-amide]
1.24 µM | Cc1cccc2nc(C(=O)Nc3nc4cc(-c5ccc(S(C)(=O)=O)cc5)ccc4[nH]3)cn12 [Example 73, 5-Methyl-imidazo[1,2-a]pyridine-2-carboxylic acid [5-(4-methanesulfonyl-phenyl)-1H-benzoimidazol-2-yl]-amide]
2.07 µM | Cc1cccn2cc(C(=O)Nc3nc4cc(-c5cccc(S(C)(=O)=O)c5)ccc4[nH]3)nc12 [Example 75, 8-Methyl-imidazo[1,2-a]pyridine-2-carboxylic acid [5-(3-methanesulfonyl-phenyl)-1H-benzoimidazol-2-yl]-amide]
1.72 µM | CCOc1ccc(-c2ccc3[nH]c(NC(=O)c4cn5cccc(C)c5n4)nc3c2)cc1F [Example 81, 8-Methyl-imidazo[1,2-a]pyridine-2-carboxylic acid [5-(4-ethoxy-3-fluoro-phenyl)-1H-benzoimidazol-2-yl]-amide]
0.44 µM | Cc1cccc2nc(C(=O)Nc3nc4cc(-c5ccc(OC(F)(F)F)cc5)ccc4[nH]3)cn12 [Example 98, 5-Methyl-imidazo[1,2-a]pyridine-2-carboxylic acid [5-(4-trifluoromethoxy-phenyl)-1H-benzoimidazol-2-yl]-amide]
1.74 µM | Cc1cccc2nc(C(=O)Nc3nc4cc(-c5ccc(O)c(F)c5)ccc4[nH]3)cn12 [Example 103, 5-Methyl-imidazo[1,2-a]pyridine-2-carboxylic acid [5-(3-fluoro-4-hydroxy-phenyl)-1H-benzoimidazol-2-yl]-amide]

The remaining lines, values behind:

Compound | IC50
Cc1cccc2nc(C(=O)Nc3nc4cc(-c5cnn(C)c5)ccc4[nH]3)cn12 [Example 41, 5-Methyl-imidazo[1,2-a]pyridine-2-carboxylic acid [5-(1-methyl-1H-pyrazol-4-yl)-1H-benzoimidazol-2-yl]-amide] | 3.06 µM
Cc1cccc2nc(C(=O)Nc3nc4cc(-c5cccc(F)c5)ccc4[nH]3)cn12 [Example 45, 5-Methyl-imidazo[1,2-a]pyridine-2-carboxylic acid [5-(3-fluoro-phenyl)-1H-benzoimidazol-2-yl]-amide] | 1.49 µM
Cc1ccc2nc(C(=O)Nc3nc4cc(OCc5ccc(C(F)(F)F)cc5)ccc4[nH]3)cn2c1 [Example 60, 6-Methyl-imidazo[1,2-a]pyridine-2-carboxylic acid [5-(4-trifluoromethyl-benzyloxy)-1H-benzoimidazol-2-yl]-amide] | 0.45 µM
Cc1cccc2nc(C(=O)Nc3nc4cc(-c5cc(Cl)cc(C(F)(F)F)c5)ccc4[nH]3)cn12 [Example 66, 5-Methyl-imidazo[1,2-a]pyridine-2-carboxylic acid [6-(3-chloro-5-trifluoromethyl-phenyl)-1H-benzoimidazol-2-yl]-amide] | 0.28 µM
Cc1cccc2nc(C(=O)Nc3nc4cc(-c5cc(C(F)(F)F)ccc5Cl)ccc4[nH]3)cn12 [Example 67, 5-Methyl-imidazo[1,2-a]pyridine-2-carboxylic acid [5-(2-chloro-5-trifluoromethyl-phenyl)-1H-benzoimidazol-2-yl]-amide] | 0.53 µM
Cc1cccc2nc(C(=O)Nc3nc4cc(-c5cccc(S(C)(=O)=O)c5)ccc4[nH]3)cn12 [Example 74, 5-Methyl-imidazo[1,2-a]pyridine-2-carboxylic acid [5-(3-methanesulfonyl-phenyl)-1H-benzoimidazol-2-yl]-amide] | 1.72 µM
Cc1cccc2nc(C(=O)Nc3nc4cc(C5CCCCC5)ccc4[nH]3)cn12 [Example 85, 5-Methyl-imidazo[1,2-a]pyridine-2-carboxylic acid (5-cyclohexyl-1H-benzoimidazol-2-yl)-amide] | 1.93 µM
Cc1cccn2cc(C(=O)Nc3nc4cc(-c5cc(Cl)cc(C(F)(F)F)c5)ccc4[nH]3)nc12 [Example 86, 8-Methyl-imidazo[1,2-a]pyridine-2-carboxylic acid [5-(3-chloro-5-trifluoromethyl-phenyl)-1H-benzoimidazol-2-yl]-amide] | 0.28 µM
Cc1cccn2cc(C(=O)Nc3nc4cc(-c5cc(Cl)ccc5Cl)ccc4[nH]3)nc12 [Example 88, 8-Methyl-imidazo[1,2-a]pyridine-2-carboxylic acid [5-(2,5-dichloro-phenyl)-1H-benzoimidazol-2-yl]-amide] | 0.29 µM
COc1ccc(-c2ccc3[nH]c(NC(=O)c4cn5cccc(C)c5n4)nc3c2)cc1C(F)(F)F [Example 89, 8-Methyl-imidazo[1,2-a]pyridine-2-carboxylic acid [5-(4-methoxy-3-trifluoromethyl-phenyl)-1H-benzoimidazol-2-yl]-amide] | 2.28 µM
Cc1cccc2nc(C(=O)Nc3nc4cc(-c5ccc(OC(C)C)c(Cl)c5)ccc4[nH]3)cn12 [Example 90, 5-Methyl-imidazo[1,2-a]pyridine-2-carboxylic acid [5-(3-chloro-4-isopropoxy-phenyl)-1H-benzoimidazol-2-yl]-amide] | 0.49 µM
Cc1cccc2nc(C(=O)Nc3nc4cc(-c5ccc(C(F)(F)F)cc5Cl)ccc4[nH]3)cn12 [Example 91, 5-Methyl-imidazo[1,2-a]pyridine-2-carboxylic acid [5-(2-chloro-4-trifluoromethyl-phenyl)-1H-benzoimidazol-2-yl]-amide] | 0.44 µM
Cc1cccn2cc(C(=O)Nc3nc4cc(-c5ccc(C(F)(F)F)c(Cl)c5)ccc4[nH]3)nc12 [Example 93, 8-Methyl-imidazo[1,2-a]pyridine-2-carboxylic acid [5-(3-chloro-4-trifluoromethyl-phenyl)-1H-benzoimidazol-2-yl]-amide] | 1.78 µM
Cc1cccc2nc(C(=O)Nc3nc4cc(-c5cc(F)cc(C(F)(F)F)c5)ccc4[nH]3)cn12 [Example 94, 5-Methyl-imidazo[1,2-a]pyridine-2-carboxylic acid [5-(3-fluoro-5-trifluoromethyl-phenyl)-1H-benzoimidazol-2-yl]-amide] | 0.42 µM
Cc1cccn2cc(C(=O)Nc3nc4cc(-c5cc(F)cc(C(F)(F)F)c5)ccc4[nH]3)nc12 [Example 95, 8-Methyl-imidazo[1,2-a]pyridine-2-carboxylic acid [5-(3-fluoro-5-trifluoromethyl-phenyl)-1H-benzoimidazol-2-yl]-amide] | 0.32 µM
Cc1cccc2nc(C(=O)Nc3nc4cc(-c5cnc(N(C)C)nc5)ccc4[nH]3)cn12 [Example 96, 5-Methyl-imidazo[1,2-a]pyridine-2-carboxylic acid [5-(2-dimethylamino-pyrimidin-5-yl)-1H-benzoimidazol-2-yl]-amide] | 1.17 µM
Cc1cccc2nc(C(=O)Nc3nc4cc(-c5ccc(C6CCCCC6)cc5)ccc4[nH]3)cn12 [Example 101, 5-Methyl-imidazo[1,2-a]pyridine-2-carboxylic acid [5-(4-cyclohexyl-phenyl)-1H-benzoimidazol-2-yl]-amide] | 0.3 µM
CCc1cccc2nc(C(=O)Nc3nc4cc(-c5cccc(C(F)(F)F)c5)ccc4[nH]3)cn12 [Example 104, 5-Ethyl-imidazo[1,2-a]pyridine-2-carboxylic acid [5-(3-trifluoromethyl-phenyl)-1H-benzoimidazol-2-yl]-amide] | 0.31 µM
COc1cc(F)ccc1-c1ccc2[nH]c(NC(=O)c3cn4c(C)cccc4n3)nc2c1 [Example 105, 5-Methyl-imidazo[1,2-a]pyridine-2-carboxylic acid [5-(4-fluoro-2-methoxy-phenyl)-1H-benzoimidazol-2-yl]-amide] | 1.79 µM
CCOc1ccc(-c2ccc3[nH]c(NC(=O)c4cn5c(C)cccc5n4)nc3c2)c(Cl)c1 [Example 108, 5-Methyl-imidazo[1,2-a]pyridine-2-carboxylic acid [5-(2-chloro-4-ethoxy-phenyl)-1H-benzoimidazol-2-yl]-amide] | 0.39 µM
O=C(Nc1nc2cc(-c3cccc(C(F)(F)F)c3)ccc2[nH]1)c1cn2c(Br)cccc2n1 [Example 111, 5-Bromo-imidazo[1,2-a]pyridine-2-carboxylic acid [5-(3-trifluoromethyl-phenyl)-1H-benzoimidazol-2-yl]-amide] | 0.22 µM
